Source: patent US8697662B2, “Methods for treating Kaposi sarcoma” (PTC Therapeutics, Inc., priority 2009, dated 2014)

How the values were obtained:
CYP2C9 = target: T1, CYP2C9 (Homo sapiens, UniProt P11712); experiment: CYP inhibition in human hepatic microsomes or recombinant isoenzymes: CYP2C9; format: in vitro ADME
T1 construct: host or cells: human hepatic microsomes or human recombinant isoenzymes
Description: It is possible that in certain clinical trial subjects, such agents may need to be adjusted for dosing or replaced by alternative agents that are not metabolized by CYP2D6, particularly when such agents may have a low therapeutic index.

[1] = system: SKNEP orthotopic xenografts; experiment: Orthotopic SKNEP Ewing sarcoma tumor model (kidney capsule), tumor weight; format: in vivo; settings: 5 weeks of treatment
Description: Experimental Design. In orthotopic tumor models, human tumor cells are implanted into the mouse in an organ that corresponds to the location from which the tumors arise. Such models may provide a better predictor of clinical efficacy than injection of tumors into the flanks of nude mice. See Hoffman, Invest. New Drugs 1999, 17(4):343-59. SY5Y neuroblastoma or SKNEP Ewing sarcoma tumor cells (1×10^6 cells/mouse) were implanted into the kidney capsule of female athymic nude mice according to published methods. See Huang et al., Proc. Natl. Acad. Sci. USA 2003, 100(13):7785-90. One week after implantation of each type of tumor, mice were divided into 2 groups and were administered a test Compound as shown in Table 21.
After 5 weeks of treatment, the mice were sacrificed, and the weights of the tumors were assessed.

soluble VEGF isoforms = experiment: ELISA of soluble VEGF production in nontransformed keratinocytes under hypoxia or normoxia; format: cell-based, human; settings: normoxic, 72 hours
Experimental: Experimental Design. Nontransformed normal human keratinocyte cell cultures were established under normoxic conditions (21% oxygen). […] At the completion of treatment, cells were assessed for viability with an ATP assay and conditioned media were evaluated for VEGF protein levels by ELISA (as described in Section 9.1.1.1).

HT1080 xenografts = experiment: Dose response assessment in nude mice bearing HT1080 xenografts (tumor and plasma human VEGF, tumor size, trough plasma level); format: in vivo, athymic nude mice
Experimental: Experimental Study Design. HT1080 cells (5×10^6 cells/mouse) were implanted subcutaneously in male athymic nude mice.
Tumor size was measured using calipers at periodic intervals during the study (data shown in Section 9.2.2). […] Mice were sacrificed, and excised tumors were homogenized in buffer containing protease inhibitors. Both terminal intratumoral and pathologic plasma human VEGF levels were measured using an ELISA that recognizes human VEGF121 and VEGF165 (as described in Section 9.1.1.1). Intratumoral VEGF levels were normalized to the total tumor protein concentration, while pathologic plasma human VEGF levels were expressed in pg/mL of plasma.
Experimental Design. The experimental design was reported in Section 9.1.2.2.

[2] = system: VEGF189 and VEGF206 isoforms; experiment: In-Cell Western and Western blot of matrix associated VEGF189/206 in HT1080 cells; format: cell-based, human; settings: normoxic, 48 hours
Experimental: Experimental Design. HT1080 (human fibrosacoma) cell cultures were established under normoxic conditions (21% oxygen). HT1080 cells constitutively overproduce VEGF even under normoxic conditions. […] At the completion of treatment, the cells were washed and harvested. Cells were incubated with a primary antibody that recognizes the VEGF189 and VEGF206 isoforms. Infrared-dye labeled antibodies were applied secondarily, and the amounts of VEGF189 and VEGF206 were determined using the IN-CELL WESTERN® assay and ODYSSEY® infrared imaging system (Li-Cor, Lincoln, Nebr., USA); results are expressed as percentage inhibition relative to vehicle treated controls. Conventional Western blotting using the same primary antibody was also performed to confirm the presence of the matrix associated isoforms; for these experiments actin was used as a loading control. Actin is a ubiquitous housekeeping protein that is not known to be post transcriptionally regulated.

HT1080 spheroids = experiment: 3-dimensional growth of HT1080 spheroids (DNA content, BrdU, morphology); format: cell-based, human
Experimental: Experimental Design. HT1080 cells grown as a monolayer were trypsinized and seeded onto a 0.75% agar noble base to prevent the cells from attaching to the bottom of the tissue culture plate and to allow/promote the cells to self-adhere and grow as 3-dimensional spheroids. […] The cells were incubated for 22 and 45 hours at 37° C., in the presence of a 10% CO2 atmosphere. Spheroids were visually checked daily for morphological changes and a medium was replenished two times per week. […] These pulse labeled spheroids were then harvested, washed and trypsinized (triple action solution, Gibco), pelleted and prepared for FACS analysis with a FITC BrdU Flow Kit, (BD Pharmingen). Cells were fixed and permeabilized with paraformadehyde and DNA stained with 7-AAD followed by incubation with an antibody which specifically recognizes […] incorporated into DNA. As described in Section 9.3.1.4. Cells were analyzed and sorted by 7-AAD signal (DNA content) to determine cell cycle phase, and BrdU content (percent actively synthesizing DNA).
Spheroids, prepared as above, were treated with either vehicle alone (0.5% DMSO v/v final) added to the media or a Compounds provided herein (10 nM or 50 nM final concentration) in media to which vehicle has been added.

[3] = target: human-ether-a-go-go-related gene (hERG) current (Homo sapiens, UniProt Q12809); experiment: Higher throughput hERG assay; format: biochemical
Chain of human-ether-a-go-go-related gene (hERG) current (Q12809 whole entry): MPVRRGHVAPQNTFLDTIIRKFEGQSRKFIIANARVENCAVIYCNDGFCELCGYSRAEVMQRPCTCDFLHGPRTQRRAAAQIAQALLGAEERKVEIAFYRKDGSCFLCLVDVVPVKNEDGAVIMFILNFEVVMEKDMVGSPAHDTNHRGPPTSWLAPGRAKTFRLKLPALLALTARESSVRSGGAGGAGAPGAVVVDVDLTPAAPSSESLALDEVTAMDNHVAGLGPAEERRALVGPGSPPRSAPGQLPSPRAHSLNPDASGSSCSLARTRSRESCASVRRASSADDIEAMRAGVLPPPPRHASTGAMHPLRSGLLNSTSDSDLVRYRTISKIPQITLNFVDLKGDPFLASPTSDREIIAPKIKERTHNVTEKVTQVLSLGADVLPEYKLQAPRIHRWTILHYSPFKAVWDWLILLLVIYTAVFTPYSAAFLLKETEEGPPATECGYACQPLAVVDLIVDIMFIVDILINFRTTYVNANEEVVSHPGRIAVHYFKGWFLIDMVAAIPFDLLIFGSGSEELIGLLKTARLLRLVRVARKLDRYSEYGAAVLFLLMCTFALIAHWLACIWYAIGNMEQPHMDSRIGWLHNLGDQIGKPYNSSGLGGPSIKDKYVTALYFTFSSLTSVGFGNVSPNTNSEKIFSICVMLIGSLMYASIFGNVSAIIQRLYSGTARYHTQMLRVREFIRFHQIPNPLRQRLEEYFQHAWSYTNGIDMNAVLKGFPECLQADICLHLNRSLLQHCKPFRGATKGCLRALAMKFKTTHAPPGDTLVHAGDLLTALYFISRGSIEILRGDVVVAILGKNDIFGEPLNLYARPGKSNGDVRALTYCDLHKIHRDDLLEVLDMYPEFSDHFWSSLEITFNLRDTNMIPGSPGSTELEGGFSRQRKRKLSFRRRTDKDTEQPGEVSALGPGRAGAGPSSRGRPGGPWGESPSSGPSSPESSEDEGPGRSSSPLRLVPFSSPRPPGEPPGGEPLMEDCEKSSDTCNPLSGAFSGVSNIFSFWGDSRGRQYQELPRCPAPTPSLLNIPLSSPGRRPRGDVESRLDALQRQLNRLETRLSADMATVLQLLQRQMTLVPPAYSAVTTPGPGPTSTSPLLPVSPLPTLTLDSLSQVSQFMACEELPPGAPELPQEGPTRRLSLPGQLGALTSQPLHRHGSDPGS

T1 sequence (P11712 whole entry): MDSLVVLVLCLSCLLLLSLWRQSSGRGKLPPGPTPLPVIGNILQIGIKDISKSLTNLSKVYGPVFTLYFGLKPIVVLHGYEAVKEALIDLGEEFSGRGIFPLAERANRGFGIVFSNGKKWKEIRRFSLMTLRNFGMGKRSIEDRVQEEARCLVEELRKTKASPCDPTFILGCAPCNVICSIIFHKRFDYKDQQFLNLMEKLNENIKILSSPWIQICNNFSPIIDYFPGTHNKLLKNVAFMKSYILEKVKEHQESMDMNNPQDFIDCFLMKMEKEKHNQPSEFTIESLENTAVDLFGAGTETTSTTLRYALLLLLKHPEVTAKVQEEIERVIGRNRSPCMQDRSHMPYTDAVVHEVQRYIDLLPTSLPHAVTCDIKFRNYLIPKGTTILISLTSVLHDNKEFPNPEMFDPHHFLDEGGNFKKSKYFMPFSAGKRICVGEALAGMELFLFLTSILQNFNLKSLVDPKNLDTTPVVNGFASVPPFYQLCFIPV

**Q.** Which results are given for `COc1ccc(C2c3[nH]c4ccc(Cl)cc4c3CCN2C(=O)Oc2ccc(Cl)cc2)cc1` (racemic) [Compound #10]?
**A.** inhibition of CYP2C9 (in words) (CYP2C9): No meaningful inhibition; tumor growth (tumor weight) (in words) [1]: completely prevented growth; decrease in VEGF concentrations in conditioned media (soluble VEGF isoforms): 21%; pathologic human VEGF levels in tumors and in plasma (in words) (HT1080 xenografts; all Compound #10 dose groups (0.3 to 10 mg/kg oral), 18 days): significantly suppressed; human VEGF reductions (in words) (HT1080 xenografts; all dose levels of >=1 mg/kg BID): essentially maximal; antitumor activity, tumor size over time (in words) (HT1080 xenografts; dose levels of >=1 mg/kg BID): maximum antitumor activity; tumor and pathologic plasma human VEGF concentrations (in words) (HT1080 xenografts; suboptimal dose of 0.3 mg/kg BID): partial reductions; inhibition of matrix associated VEGF189 and VEGF206 isoforms (in words) [2]: potent concentration-dependent inhibition; percentage of cells that incorporated BrdU (cells in S-phase) (in words) (HT1080 spheroids; HT1080 spheroids, 24 or 48 hours): not significantly altered; spheroid morphology (in words) (HT1080 spheroids; maintained in the presence of compound for three weeks, data not shown): no obvious morphological changes; cell cycle distribution of HT1080 spheroids (in words) (HT1080 spheroids; treated for 24 hours): not affected; cell cycle distribution of HT1080 spheroids (in words) (HT1080 spheroids; treated for 48 hours): not affected; inhibition of hERG current (in words) [3]: negative for meaningful inhibition
